# Experimental data reported in PMC7508583, “Discovery and Preclinical Development of Antigiardiasis Fumagillol Derivatives” (Antimicrobial Agents and Chemotherapy, 2020).
# Where two headings read alike, the source gives them in different places.
# Legend:
# [1] = tested on: Caco-2 cell monolayers; test: in vitro; conditions: human, Caco-2, 120 min, 10 µM, pH 7.4
# Excerpt: Next, we tested the permeation of the compounds across polarized Caco-2 cell monolayers, a method that is widely used as an in vitro model of the human small intestinal mucosa to predict the absorption of orally administered drugs ([63], [64]). With noninvasive intestinal infections, there is no need to establish a high plasma concentration. Since a high rate of uptake through the host gut lining could increase compound toxicity, we sought to reduce gut absorption. […] Both apical-to-basal and basal-to-apical permeation values were measured to obtain information about efflux. […] The efflux machinery is currently unknown.
# Passage 36 Caco-2 cells were used. The cells were cultured in Dulbecco’s modified Eagle’s medium (DMEM; 5 ml of 100 mM sodium pyruvate, 5 ml of 100× nonessential amino acids, 5 ml of penicillin-streptomycin, and 100 ml of heat-inactivated fetal bovine serum added to 385 ml of DMEM aseptically and mixed thoroughly), pH 7.4, at 37°C in 5% CO2. DMEM (250 μl) was added to the basal compartment of 96-well multiscreen Caco-2 cell plate consisting of high-pore-density polycarbonate (Millipore) with a 0.4-μm pore size and a 0.11-cm^2 active membrane area. The cells were seeded at a density of 12,000 cells/well (0.16 × 10^6 cells/ml) in the apical wells, with one well containing only medium as blank. The Caco-2 cell plate was placed in a CO2 incubator at 37°C for cell proliferation. On the day of assay, the medium was removed, washed twice with Hanks balanced salt solution (HBSS) buffer supplemented with 2% bovine serum albumin (BSA), pH 7.4, and incubated with the HBSS buffer for 30 min at 37°C. Wells with transepithelial electrical resistance values of greater than 230 Ω · cm^2 were selected for the experiments. […] The assay was performed in duplicate.
# Seventy-five microliters of the test compounds was added to the apical wells, and 250 μl of HBSS buffer with 2% BSA was added to the basal wells. The plate was incubated in a CO2 incubator with shaking on a plate shaker at 150 rpm for 120 min, after which 25 μl of the basal samples was collected and processed.
# Two hundred fifty microliters of test compounds was added to the basal wells, and 75 μl of HBSS buffer with 2% BSA was added to the apical wells. The plate was incubated in a CO2 incubator with shaking on a plate shaker at 150 rpm for 120 min, after which 25 μl of the apical samples was collected and processed.
# For sample processing, a single-point calibration curve in HBSS buffer with 2% BSA was used. Donor samples were diluted 1:1 with HBSS containing 2% BSA, and receiver samples were diluted with 1:1 HBSS buffer and precipitated with 200 μl of acetonitrile containing internal standard. The samples were vortexed for 5 min at 1,000 rpm and centrifuged at 4,000 rpm for 10 min. One hundred microliters of the supernatant was diluted with 200 μl of water and analyzed by LC-MS/MS (with a Shimadzu ultrafast liquid chromatograph and an API 4000 LC-MS/MS system).
# The apparent permeation coefficients (Papp) were calculated as Papp = (dQ/dT) × (1/C0) × (1/A), where dQ is the amount permeated to the receiver compartment of the 96-well plate, dT is the time of compound incubation, C0 is the initial compound concentration in the donor compartment of the well, and A is the surface area of the monolayer.
# [2] = tested on: G. lamblia GS trophozoites; test: Mouse giardiasis model efficacy; format: in vivo, Giardia lamblia; conditions: for ED50: Giardia duodenalis, 96 h; for EC50, 4-day single-daily-dose treatment regimen: Fig. 5
# Method: The C57BL/6J mice were infected with G. lamblia GS trophozoites, treated for 4 days, and euthanized as described in Materials and Methods.
# Compound efficacy was evaluated in the mature mouse giardiasis model reported previously ([18], [66]). Fifteen 4-week-old C57BL/6J female mice (The Jackson Laboratory, Bar Harbor, ME) were infected with G. lamblia GS or H7 trophozoites. For each experiment, the trophozoites (500,000 trophozoites suspended in 200 μl of TYI-S-33 medium) were administered by oral gavage to 15 mice. […] The remaining 5 untreated mice served as controls. The compounds were administered by oral gavage in 200 μl of TYI-S-33 medium supplemented with 0.5% DMSO. All mice were euthanized on day 7. The University of Maryland College Park IACUC approved the animal studies.
# Two inches of the upper small intestine were dissected and washed with 2 ml of medium supplemented with antibiotics to produce axenized cultures (1 mg/ml each piperacillin and moxalactam and 10 μg/ml each vancomycin and polymyxin B, which is a modified mixture compared with that used earlier). The harvested small intestines were opened longitudinally and minced in a petri dish containing 10 ml of ice-chilled medium. The plates were placed on ice for 30 min to allow the trophozoites to detach from the intestine, and the entire content of each petri dish was transferred into a 15-ml glass tube, the volume was adjusted to 14 ml by adding the antibiotic-containing medium, and the tube was vigorously vortexed to separate the trophozoites from the intestine debris. For the following 2 h, the tubes were kept at 37°C to allow trophozoite attachment to the wall of the glass tube, after which the medium containing the intestine debris was decanted and replaced by fresh medium. The tubes were kept at 37°C for another 15 min, followed by a second medium replacement. The tubes were kept at 37°C for 6 days for proliferation. Trophozoite growth was determined once daily by monitoring the ATP content using the ATPlite reagent.
# The proliferation measurements were used to calculate growth curves and the trophozoite load of drug-treated mice compared with that of untreated mice. The trophozoite load was quantified by calculating the initial population from the growth curves and fitting the luminescence or the trophozoite counting data to the Malthusian model of exponential growth, Nt = N0e^rt, where Nt is the signal of the population at time t, r is the growth rate, and N0 is the signal of the initial population at the end of treatment. The percentage of the load relative to the N0 for untreated mouse samples was determined. […] The curve was fit with a variable slope using GraphPad Prism (version 8.2.1) software (GraphPad Software Inc., La Jolla, CA).
# [3] = tested on: CHO-K1 (CHO) cells; conditions: cited from earlier work
# [4] = 13.7 mg/kg, mouse giardiasis model
smiles,measurement,setting,value
COC1C(OC(=O)NC(=O)CN2CCOCC2)CCC2(CO2)C1C1(C)OC1CC=C(C)C (centres unmarked) [Compound 3],Caco-2 cell permeation as % of the permeation of fumagillin,[1],62%
"CO[C@@H]1[C@H](OC(=O)Nc2ccc(C(=O)O)cc2)CC[C@]2(CO2)[C@H]1[C@@]1(C)O[C@@H]1CC=C(C)C [Compound 9, 4-(((((3R,4S,5S,6R)-5-methoxy-4-((2R,3R)-2-methyl-3-(3-methylbut-2-en-1-yl)oxiran-2-yl)-1-oxaspiro[2.5]octan-6-yl)oxy)carbonyl)amino)benzoic acid]","fully curative dose (100% effective dose, ED100)","[2]; C57BL/6J mice infected with G. lamblia GS, oral, once daily for 4 days",6.6 mg/kg
same,ED50,"[2]; C57BL/6J mice infected with G. lamblia GS, oral, once daily for 4 days, read-out: ED50",0.064 mg/kg
same,"EC50, 4-day single-daily-dose treatment regimen",[2]; mouse giardiasis model,0.064 mg/kg/day
same,Caco-2 cell permeation as % of the permeation of fumagillin,[1],53%
"CO[C@@H]1[C@H](OC(=O)/C=C/C=C/C=C/C=C/C(=O)O)CC[C@]2(CO2)[C@H]1[C@@]1(C)O[C@@H]1CC=C(C)C [Fumagillin, reference compound]",cure of mice,[2]; [4],none of the mice were cured
same,trophozoite load remaining compared with untreated control mice,[2]; [4],7%
same,ED50,[2]; po,0.247 mg/kg
same,"EC50, 4-day single-daily-dose treatment regimen",[2]; mouse giardiasis model,0.247 mg/kg/day
same,IC50,"[3]; read-out: IC50, cytotoxicity toward mammalian CHO cells",> 100 µM
"Cc1ncc([N+](=O)[O-])n1CCO [Metronidazole, reference compound]",IC50,"[3]; read-out: IC50 CHO, cytotoxicity",17.3 µM
